# Results published in publication PMC7735645 (Journal of the American Chemical Society, 2019).
# How the values were obtained:
# [1] = system: A549 cells; test: NPM1 relocalization; type: cell-based; details: for NPM1 redistribution: free ligand alone, Figures S2 and S3
# [2] = system: DNA damage; test: DNA damage in treated cells; type: cell-based; details: early time points, unpublished data from the authors' lab
# [3] = system: A549 cells; test: 24 h IC50; type: cell-based; details: read-out: 24 h IC50 value, Table S1
# [4] = water/octanol partition coefficient; type: physicochemical
# [5] = A549 cells, 24 h treatment, 10 μM
compound,measurement,setting,value
"NC1CCCCC1N (stereo not drawn) [DACH ligand, diaminocyclohexane, reference compound]",NPM1 redistribution,[1],no influence on NPM1 redistribution
"N.N.[Cl][Pt][Cl] [compound 1, cisplatin, reference compound]",DNA damage relative to NPM1 relocation,[2],DNA damage occurs at early time points
same,NPM1 redistribution / nucleolar stress induction,[1]; [5],more closely resembles that of the no-treatment control
same,NPM1 redistribution / nucleolar stress induction,"[1]; A549 cells, 24 h treatment, 10 μM, listed as cisplatin",a small amount of NPM1 redistribution was observed
"O=C1[O][Pt]2([NH][C@@H]3CCCC[C@H]3[NH]2)[O]C1=O [compound 2, oxaliplatin, reference compound]",DNA damage relative to NPM1 relocation,[2],no such damage occurs prior to observed NPM1 distribution
same,IC50,[3],81.5 µM
same,NPM1 redistribution / nucleolar stress induction,[1]; [5],induces robust redistribution of NPM1
same,NPM1 redistribution / nucleolar stress induction,"[1]; A549 cells, 24 h treatment, 10 μM, listed as Oxaliplatin",robust NPM1 relocalization
"[NH2][Pt]1([NH2])[O]C(=O)C2(CCC2)C(=O)[O]1 [compound 3, carboplatin, reference compound]",NPM1 redistribution / nucleolar stress induction,[1]; [5],more closely resembles that of the no-treatment control
"NC1CCCCC1N.[Cl][Pt][Cl] (stereo not drawn) [compound 4, DACHPt]","relative hydrophobicity (water/octanol partition coefficient, log P)",[4],more hydrophobic than the simpler diam(m)ine compounds
same,NPM1 redistribution / nucleolar stress induction,[1]; [5],induces robust nucleolar stress
"N.N.O=C([O-])C(=O)[O-].[Pt+2] [compound 5, DOAP]",NPM1 redistribution / nucleolar stress induction,[1]; [5],does not induce stress
"O=C(O)C(=O)O [oxalic acid ligand, oxalic acid, reference compound]",NPM1 redistribution,[1],no influence on NPM1 redistribution
Pentaplatin [compound 9],NPM1 redistribution / nucleolar stress induction,[1]; [5],found to induce nucleolar stress
same,coefficient of variation (CV) of NPM1 intensity,[1]; [5],slightly higher resultant CV than positive controls or oxaliplatin
